Molecular target: T1, TLR6 (Homo sapiens, UniProt Q9Y2C9)
T1 construct: endogenous in cells; host or cells: THP-1 monocytes and/or PBMCs
T1 sequence (Q9Y2C9 32-796): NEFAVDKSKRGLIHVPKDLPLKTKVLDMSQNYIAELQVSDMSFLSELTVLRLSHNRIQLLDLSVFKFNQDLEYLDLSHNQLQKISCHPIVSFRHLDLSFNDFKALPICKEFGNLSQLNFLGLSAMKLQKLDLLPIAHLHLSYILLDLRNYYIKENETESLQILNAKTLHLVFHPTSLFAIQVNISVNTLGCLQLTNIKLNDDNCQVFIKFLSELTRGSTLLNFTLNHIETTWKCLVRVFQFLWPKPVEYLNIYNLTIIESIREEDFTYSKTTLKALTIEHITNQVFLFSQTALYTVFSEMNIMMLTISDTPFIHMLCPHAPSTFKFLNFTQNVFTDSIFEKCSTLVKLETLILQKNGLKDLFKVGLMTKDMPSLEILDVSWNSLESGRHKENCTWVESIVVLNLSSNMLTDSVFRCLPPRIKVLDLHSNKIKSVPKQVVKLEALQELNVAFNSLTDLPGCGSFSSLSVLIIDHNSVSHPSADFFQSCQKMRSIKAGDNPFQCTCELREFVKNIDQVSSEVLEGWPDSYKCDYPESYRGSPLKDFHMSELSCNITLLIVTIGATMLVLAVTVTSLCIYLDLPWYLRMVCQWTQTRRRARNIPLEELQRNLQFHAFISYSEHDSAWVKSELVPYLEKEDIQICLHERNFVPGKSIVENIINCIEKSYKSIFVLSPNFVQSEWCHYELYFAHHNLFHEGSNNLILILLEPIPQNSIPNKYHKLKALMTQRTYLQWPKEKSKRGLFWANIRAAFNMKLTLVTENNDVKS
Assay: TLR6 ligand induced TNF-α secretion (ELISA)
Format: cell-based
Settings: cells treated with TLR6 ligand 75 ng/ml
Method: The present invention has checked the effect of various TLR ligands on THP-1 monocytes, PBMCs and their ability to activate and release TNF-α. For this purpose about 9 TLR ligands were used. These ligands were obtained from Apotech Cat; APO-54N-018-K100 and assayed for TNF-α release in culture supernatants.
THP-1 and PBMCs (2×10^5 cells/well) were plated in 96-well plate. The cells were pretreated with RSCL-0409 in DMSO 1 hr prior to TLR ligand treatment. Following 1 hr pre-treatment, the cells were treated with TLR ligands [TLR2, TLR5 and TLR6-75 ng/ml each, TLR3-75 μg/ml, TLR4-750 ng/ml, TLR7, TLR8 and TLR9-7.5 μg/ml) for 24 hrs. The culture supernatant were collected after the stipulated time and assayed for TNF-α release using a Duoset Enzyme-Linked ImmunoSorbent Assay (ELISA) detection Kit (R&D systems, MN 55413, USA; Cat: DY-210 E). Simultaneously supernatants were collected from cells treated with ligands without pre-treatment with RSCL-0409 and only RSCL-0409 without ligand treatment.

**Q.** For `COc1ccc(OC2OC3COC(c4ccccc4)OC3C(OC3OC(COC(=O)CCC(C)=O)C(OC(=O)CCl)C(OC(C)=O)C3OC(C)=O)C2NC(=O)C(Cl)(Cl)Cl)cc1` [RSCL-0409, p-Methoxy phenyl-O-(2,3-di-O-acetyl-4-O-chloroacetyl-6-O-levulinoyl-β-D-glucopyranosyl)-(1-3)-2-deoxy-2-trichloroacetamido-4,6-O-benzylidene-α-D-glucopyranoside], which “effect on TNF-α secretion” value is on record?
**A.** no effect observed

— patent publication US20090215710A1, “CARBOHYDRATE BASED TOLL-LIKE RECEPTOR (TLR) ANTAGONISTS” (RELIANCE LIFE SCIENCES PVT. LTD., priority 2007, published 2009)
